Laboratory results reported in patent US8722849B2, “Polypeptides” (Novo Nordisk A/S, priority 2011, dated 2014).
Values after ≈ are worked out from the molar mass of the structure shown. Where two headings read alike, the source gives them in different places. Starred links: 1 amine or outer side, 2 acyl side, 3 side chain; linkers in the order of their positions; H or OH if unused. Positions of bridges follow the written chain, without caps; N, C: chain ends. Residues, ends and D or L forms follow the SMILES beside them. *: point of attachment. C20 diacid = O=C(O)CCCCCCCCCCCCCCCCCCC(=O)*; γGlu = O=C(O)[C@H](CCC(=O)[*:2])N[*:1]

Tests used:
food intake = assay: Assay (I) efficacy testing on appetite (food intake), ad libitum fed rat model; type: in vivo, Sprague Dawley (SD) rats; settings: 3 nmol/kg
Summary of the method: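 Sprague Dawley rats (200–250 g), single-housed under reversed light cycle with free food and water, got one ip, po or sc dose of 0.01–3 mg/kg just before lights-off. Individual food intake recorded hourly for 7 h, then at 24 h and sometimes 48 h; groups of 5–8, Grubbs outliers excluded.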

[1] = molecular target: T1, human amylin receptor (amylin 3(a) receptor: human calcitonin receptor + RAMP-3) (Homo sapiens, UniProt O60896+P30988); assay: Assay (II)a functional CRE-luciferase assay, human amylin receptor; type: cell-based
T1 construct: expressed in transfected cells; host or cells: BHK570
T1 sequence (P30988 25-474): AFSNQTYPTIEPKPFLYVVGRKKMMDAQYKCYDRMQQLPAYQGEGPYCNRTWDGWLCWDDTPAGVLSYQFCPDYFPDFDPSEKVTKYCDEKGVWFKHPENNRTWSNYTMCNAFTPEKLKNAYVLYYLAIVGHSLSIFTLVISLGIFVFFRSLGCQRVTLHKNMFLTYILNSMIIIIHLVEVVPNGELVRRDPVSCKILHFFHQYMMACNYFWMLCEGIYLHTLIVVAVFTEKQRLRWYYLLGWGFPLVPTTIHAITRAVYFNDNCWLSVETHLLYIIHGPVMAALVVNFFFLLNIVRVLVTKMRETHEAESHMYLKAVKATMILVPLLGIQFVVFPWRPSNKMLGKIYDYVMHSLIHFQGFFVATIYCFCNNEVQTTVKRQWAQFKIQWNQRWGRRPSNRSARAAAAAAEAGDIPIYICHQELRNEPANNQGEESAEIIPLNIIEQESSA
T1 sequence (O60896 24-148 partner): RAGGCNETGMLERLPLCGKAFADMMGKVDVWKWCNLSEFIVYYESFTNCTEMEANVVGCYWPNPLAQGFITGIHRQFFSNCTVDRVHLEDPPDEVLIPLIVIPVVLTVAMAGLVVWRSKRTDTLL

[2] = molecular target: T2, human calcitonin receptor (Homo sapiens, UniProt P30988); assay: Assay (II)a functional CRE-luciferase assay, human calcitonin receptor; type: cell-based; settings: Table 7; human calcitonin (CTa) receptor
T2 construct: expressed in transfected cells; host or cells: BHK570
T2 sequence (P30988 25-474): T1 sequence (P30988 25-474)

[3] = Assay (IV) determination of solubility; type: physicochemical
Summary of the method: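 Polypeptide in water (~500 nmol/ml stock) was mixed 1:1 with 100 mM buffers from pH 3.0 to 8.0 (glycylglycine pH 3.0–5.0; bistrispropane pH 6.0–8.0). After 18 hours at room temperature, samples were centrifuged and the polypeptide remaining in solution was quantified by HPLC.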

[4] = molecular target: T3, rat amylin 3(a) receptor (rat calcitonin(a) receptor + rat RAMP3) (Rattus norvegicus, UniProt P32214+Q9JJ73); assay: Assay (II)b functional cAMP FlashPlate assay, rat amylin receptor; type: cell-based; settings: Table 11
T3 construct: expressed in transfected cells; host or cells: BHK tk'ts 13
T3 sequence (P32214 25-479 isoform P32214-2 limits assumed): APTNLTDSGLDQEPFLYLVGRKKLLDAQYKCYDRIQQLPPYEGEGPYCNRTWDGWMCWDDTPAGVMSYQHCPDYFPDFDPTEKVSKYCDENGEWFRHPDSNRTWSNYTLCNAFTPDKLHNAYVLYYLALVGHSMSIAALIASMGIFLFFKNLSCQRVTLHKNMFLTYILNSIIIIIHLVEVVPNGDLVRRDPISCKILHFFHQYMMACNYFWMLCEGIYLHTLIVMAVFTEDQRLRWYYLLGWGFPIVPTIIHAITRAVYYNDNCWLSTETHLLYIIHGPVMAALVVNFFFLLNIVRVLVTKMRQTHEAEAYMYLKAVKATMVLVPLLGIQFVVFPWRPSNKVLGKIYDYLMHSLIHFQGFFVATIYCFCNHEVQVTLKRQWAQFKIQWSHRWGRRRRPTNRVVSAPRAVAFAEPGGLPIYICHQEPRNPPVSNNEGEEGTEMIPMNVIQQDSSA
T3 sequence (Q9JJ73 23-147 partner): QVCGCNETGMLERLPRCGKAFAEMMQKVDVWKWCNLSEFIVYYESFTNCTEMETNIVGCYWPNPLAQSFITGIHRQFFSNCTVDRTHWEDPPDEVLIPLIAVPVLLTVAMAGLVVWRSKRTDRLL
From the text: (§1) Assay (II)b—Rat Calcitonin and Rat Amylin Receptor Assays
(§2) Activation of calcitonin and amylin (coexpression of calcitonin receptor and receptor activity modifying proteins (RAMP)) receptors lead to increased intracellular concentrations of cAMP. In order to quantify the cAMP levels in transiently transfected cells the Adenylyl Cyclase Activation FlashPlate® Assay from […] was used. The basic principle of the FlashPlate® Assay is a competition between radioactive and non-radioactive cAMP generated by the cells for a fixed number of binding sites.
(§3) Construction of rat calcitonin(a)—and rat amylin 3(a)-receptor cells.
(§4) BHK tk'ts 13 cells were transiently transfected with either rat calcitonin (a) receptor or amylin 3 (a) receptor (rat calcitonin(a) receptor+ rat RAMP3) using FuGENE® 6 (ROCHE), according to the manufacturers recommendations.
(§5) 24 hours after transient transfection the cells (rat calcitonin(a)—or rat amylin 3(a)—receptor cells) were added (100.000 cells/well) to the 96 well FlashPlates® with samples or standard in FlashPlate stimulation buffer with IBMX and incubated for 30 min. Detection mix was created according to manufacturers protocol and scintillation measured after 3 h of incubation on TopCounter™ (Packard).

[5] = molecular target: T4, rat calcitonin (a) receptor (Rattus norvegicus, UniProt P32214); assay: Assay (II)b functional cAMP FlashPlate assay, rat calcitonin receptor; type: cell-based; settings: Table 11; read-out: CTa receptor rat EC50
T4 construct: expressed in transfected cells; host or cells: BHK tk'ts 13
T4 sequence (P32214 25-479 isoform P32214-2 limits assumed): T3 sequence (P32214 25-479 isoform P32214-2 limits assumed)
From the text: as §1, §2, §3, §4, §5

[6] = Table 2, BHK amylin 3(a)-receptor/CRE-luc cells
[7] = bistrispropane buffer, pH 6, pH 6.0, read-out: Solubility pH 6.0
[8] = bistrispropane buffer, pH 6.5, pH 6.5, read-out: Solubility pH 6.5
[9] = bistrispropane buffer, pH 7, pH 7.0, 18 hours at room temperature, Table 3, read-out: Solubility pH 7.0
[10] = bistrispropane buffer, pH 7, pH 7.0, read-out: Solubility pH 7.0
[11] = bistrispropane buffer, pH 7.5, pH 7.5, read-out: Solubility pH 7.5
[12] = bistrispropane buffer, pH 8, pH 8.0, read-out: Solubility pH 8.0
[13] = glycylglycine buffer, pH 3, pH 3.0, read-out: Solubility pH 3.0
[14] = glycylglycine buffer, pH 4, pH 4.0, 18 hours at room temperature, Table 2, read-out: Solubility pH 4.0
[15] = glycylglycine buffer, pH 4, pH 4.0, read-out: Solubility pH 4.0

| Structure (SMILES) | EC50 [1, 6] [pM] | EC50 [2] [pM] | solubility at 18 h [3, 7] [µM] | solubility at 18 h [3, 8] [µM] | solubility at 18 h [3, 9] [µM] | solubility at 18 h [3, 10] [µM] | solubility at 18 h [3, 11] [µM] | solubility at 18 h [3, 12] [µM] | solubility at 18 h [3, 13] [µM] | solubility at 18 h [3, 14] [µM] | solubility at 18 h [3, 15] [µM] | EC50 [4] [pM] | EC50 [5] [pM] | other results |
| --- | --- | --- | --- | --- | --- | --- | --- | --- | --- | --- | --- | --- | --- | --- |
| CC[C@H](C)[C@H](NC(=O)[C@@H]1CCCN1C(=O)CNC(=O)[C@H](Cc1ccccc1)NC(=O)[C@H](CC(N)=O)NC(=O)[C@H](CC(N)=O)NC(=O)[C@H](CO)NC(=O)[C@H](CO)NC(=O)[C@H](CCCNC(=N)N)NC(=O)[C@H](Cc1c[nH]cn1)NC(=O)[C@H](CC(C)C)NC(=O)[C@H](Cc1ccccc1)NC(=O)[C@H](CCC(=O)O)NC(=O)[C@H](C)NC(=O)[C@H](CC(C)C)NC(=O)[C@H](CCCNC(=N)N)NC(=O)[C@H](CCC(N)=O)NC(=O)[C@@H](NC(=O)[C@H](C)NC(=O)[C@@H]1CSSC[C@H](NC(=O)CC[C@H](NC(=O)CCCCCCCCCCCCCCCCCCC(=O)O)C(=O)O)C(=O)NCC(=O)N[C@@H]([C@@H](C)O)C(=O)N[C@@H](C)C(=O)N[C@@H]([C@@H](C)O)C(=O)N1)[C@@H](C)O)C(=O)N[C@@H](CC(C)C)C(=O)N1CCC[C@H]1C(=O)N1CCC[C@H]1C(=O)N[C@H](C(=O)N[C@@H](CCC(=O)O)C(=O)N[C@H](C(=O)NCC(=O)N[C@@H](CO)C(=O)NCC(=O)N[C@H](C(=O)N[C@@H](Cc1ccc(O)cc1)C(N)=O)[C@@H](C)O)C(C)C)[C@@H](C)O [Example 3, N-alpha-[(S)-4-Carboxy-4-(19-carboxynonadecanoylamino)butyryl]-[des1,Gly3,Glu14,His17,Arg18,Glu31,Gly35]-pramlintide] ({C20 diacid-γGlu}-CGTATCATQRLAEFLHRSSNNFGPILPPTEVGSGTY-NH2; disulfide 1-6 (inferred)) | 164 | 222 | > 200 | > 200 | > 200 | > 200 | > 200 | > 200 | > 200 | > 200 | > 200 | – | – | Food intake reduction 0-24 h 3 nmol/kg (%) (food intake; 0-24 h): 37%; Food intake reduction 24-48 h 3 nmol/kg (%) (food intake; 24-48 h): 32%; solubility at 18 h ([3]; glycylglycine buffer, pH 5, pH 5.0, read-out: Solubility pH 5.0): 68 µM (≈ 289 µg/mL) |
| CC[C@H](C)[C@H](NC(=O)[C@@H]1CCCN1C(=O)CNC(=O)[C@H](Cc1ccccc1)NC(=O)[C@H](CO)NC(=O)[C@H](CO)NC(=O)[C@H](CO)NC(=O)[C@H](CO)NC(=O)[C@H](CCCNC(=N)N)NC(=O)[C@H](Cc1cnc[nH]1)NC(=O)[C@H](CC(C)C)NC(=O)[C@H](Cc1ccccc1)NC(=O)[C@H](CCC(=O)O)NC(=O)[C@H](C)NC(=O)[C@H](CC(C)C)NC(=O)[C@H](CCCNC(=N)N)NC(=O)[C@H](CCC(N)=O)NC(=O)[C@@H](NC(=O)[C@H](C)NC(=O)[C@@H]1CSSC[C@H](NC(=O)[C@H](Cc2cnc[nH]2)NC(=O)CC[C@H](NC(=O)CCCCCCCCCCCCCCCCCCC(=O)O)C(=O)O)C(=O)N[C@@H](CC(N)=O)C(=O)N[C@@H]([C@@H](C)O)C(=O)N[C@@H](C)C(=O)N[C@@H]([C@@H](C)O)C(=O)N1)[C@@H](C)O)C(=O)N[C@@H](CC(C)C)C(=O)N1CCC[C@H]1C(=O)N1CCC[C@H]1C(=O)N[C@H](C(=O)N[C@@H](CC(=O)O)C(=O)N[C@H](C(=O)NCC(=O)N[C@@H](CO)C(=O)N[C@@H](CC(=O)O)C(=O)N[C@H](C(=O)N[C@@H](Cc1ccc(O)cc1)C(N)=O)[C@@H](C)O)C(C)C)[C@@H](C)O [Example 9, N-alpha-[(S)-4-Carboxy-4-(19-carboxynonadecanoylamino)butyryl]-[His1,Glu14,His17,Arg18,Ser21,Ser22,Asp31,Asp35]-pramlintide] ({C20 diacid-γGlu}-HCNTATCATQRLAEFLHRSSSSFGPILPPTDVGSDTY-NH2; disulfide 2-7) | 212 | 208 | > 200 | > 200 | > 200 | > 200 | > 200 | > 200 | > 200 | 116 (≈ 514 µg/mL) | 116 (≈ 514 µg/mL) | 330 | 1730 | solubility at 18 h ([3]; bistrispropane buffer, pH 7, pH 7.0, Table 8, read-out: Solubility pH 7.0): > 200 µM; solubility at 18 h ([3]; bistrispropane buffer, pH 7, pH 7.0, Table 9, read-out: Solubility pH 7.0): > 200 µM; solubility at 18 h ([3]; bistrispropane buffer, pH 7.5, pH 7.5, Table 9, read-out: Solubility pH 7.5): > 200 µM; solubility at 18 h ([3]; pH 5.0, read-out: Solubility pH 5.0): 5 µM (≈ 22.2 µg/mL) |
| CC(C)C[C@H](NC(=O)[C@H](CCCNC(=N)N)NC(=O)[C@H](CCC(N)=O)NC(=O)[C@@H](NC(=O)[C@H](C)NC(=O)[C@@H]1CSSC[C@H](NC(=O)[C@H](CCC(=O)O)NC(=O)CC[C@H](NC(=O)CCCCCCCCCCCCCCCCCCC(=O)O)C(=O)O)C(=O)NCC(=O)N[C@@H]([C@@H](C)O)C(=O)N[C@@H](C)C(=O)N[C@@H]([C@@H](C)O)C(=O)N1)[C@@H](C)O)C(=O)N[C@@H](C)C(=O)N[C@@H](CCC(=O)O)C(=O)N[C@@H](Cc1ccccc1)C(=O)N[C@@H](CC(C)C)C(=O)N[C@H](C(=O)N[C@@H](CCCNC(=N)N)C(=O)N[C@@H](CO)C(=O)N[C@@H](CO)C(=O)N[C@@H](CO)C(=O)N[C@@H](CO)C(=O)N[C@@H](Cc1ccccc1)C(=O)NCC(=O)N[C@@H](C)C(=O)N1CCC[C@H]1C(=O)N[C@@H](CC(C)C)C(=O)N[C@@H](CO)C(=O)N[C@@H](CO)C(=O)N[C@H](C(=O)N[C@@H](CCC(=O)O)C(=O)N[C@H](C(=O)NCC(=O)N[C@@H](CO)C(=O)N[C@@H](CCCNC(=N)N)C(=O)N[C@H](C(=O)N[C@@H](Cc1ccc(O)cc1)C(N)=O)[C@@H](C)O)C(C)C)[C@@H](C)O)C(C)C [Example 24, N-alpha-[(S)-4-Carboxy-4-(19-carboxynonadecanoylamino)butyryl]-[Glu1,Gly3,Glu14,Arg18,Ser21,Ser22,Ala25,Pro26,Ser28,Ser29,Glu31,Arg35]-pramlintide] ({C20 diacid-γGlu}-ECGTATCATQRLAEFLVRSSSSFGAPLSSTEVGSRTY-NH2; disulfide 2-7 (inferred); C-terminus assumed) | – | 672 | – | – | – | – | – | – | – | – | – | 4510 | 1750 | EC50 ([1]; Table 6, human amylin receptor): 1440 pM |
